The values below come from patent US20120122848A1, “(+)-3-HYDROXYMORPHINAN DERIVATIVES AS NEUROPROTECTANTS” (GREEN CROSS CORPORATION, priority 2009, published 2012).

The subject of data set [1] is HT22 cells (mouse hippocampal neuron). The data set is described as follows: Cell cytotoxicity test: protection of HT22 cells against glutamate toxicity (EC50) and cytotoxicity of the compounds (CC50), MTT. Type of data set: cell-based. To be noted: Mus musculus, HT-22, five millimolar glutamate, 24 hrs, read-out: EC50 (neuroprotective effect against glutamate toxicity). On the procedure: (§1) HT22 cells (mouse hippocampal neuron, Salk Institute and KRIBB) were plated in a 96-well plate at a density of 3×10^3 cells/well for 16 hrs before treatment. The cells were treated with five millimolar glutamate and various concentrations of the inventive compounds and incubated for 24 hrs in a growth media (DMEM with 10% FBS and 1% penicillin streptomycin). Then, the cells were treated with 3-(4,5-dimethylthiazol-2-yl)-2,5-diphenyltetrazolium bromide (MTT, Sigma®) for 4 hrs and absorbance of each well was measured with a plate reader at a wavelength of 450 nm. [Da-Qing, et. al., Anti-oxidant and anti-inflammatory activities of macelignan in murine hippocampal cell line and primary culture of rat microglia cells, BBRC, 2005, 331, 1264-1269].
(§2) In Table 1, EC50 is neuroprotective effect against glutamate toxicity and CC50 is cytotoxicity of the compounds. The EC50 values were statistically analyzed using Prizm® (GraphPad Software Inc., San Diego, Calif., USA).

Test in data set [2]: as above
Type of data set: cell-based, mouse. To be noted: mouse, HT22 cells (mouse hippocampal neuron). How it is done:
as §1, §2

Structures can show the parent of a compound that is named as a salt.

On to `Oc1cc2c(cc1Nc1cccc3cnccc13)C[C@@H]1NCC[C@]23CCCC[C@H]13` [Example 67, TFA salt], for which, in data set [1], the EC50 (as a rule, the concentration at which the effect is half-maximal) turned out to be 107 nM. Further, in data set [2], the midpoint of cytotoxicity, the CC50 at 24 h, lay at 12500 nM.
Take `Oc1cc2c(cc1Nc1cc(Cl)ccc1Cl)C[C@@H]1NCC[C@]23CCCC[C@H]13` [Example 64, (+)-2-(2,5-Dichlorophenylamino)-3-hydroxymorphinan TFA salt]: the half-maximal effective concentration (EC50) in data set [1] turned out to be 464 nM. It took 1900 nM to reach half-maximal cytotoxicity in data set [2] (CC50 at 24 h).
The like results for `CCCC(CCC)Nc1cc2c(cc1O)[C@]13CCCC[C@@H]1[C@H](C2)NCC3` [Example 89, (+)-2-(Heptan-4-ylamino)-3-hydroxymorphinan TFA salt] were, in that order, 74 nM and 1940 nM.
For `Oc1cc2c(cc1Nc1ccccc1)C[C@@H]1NCC[C@]23CCCC[C@H]13` [Example 30, (+)-3-Hydroxy-2-(phenylamino)morphinan TFA salt], the half-maximal effective concentration (EC50) in data set [1] is 35.8 nM. Besides, the CC50 (in general, the concentration at which the toxic effect on the cells reaches its halfway point) at 24 h in data set [2] came to 7790 nM.
For the molecule `CCOC(=O)Nc1ccccc1Nc1cc2c(cc1O)[C@]13CCCC[C@@H]1[C@H](C2)NCC3` [Example 117, (+)-2-(2-(Ethoxycarbonylamino)phenylamino)-3-hydroxymorphinan TFA salt], the EC50 in data set [1] was found to be 1080 nM. In data set [2], it took 36500 nM to reach half-maximal cytotoxicity (CC50 at 24 h).
For `Oc1cc2c(cc1NC1CCCC1)C[C@@H]1NCC[C@]23CCCC[C@H]13` [Example 92, (+)-2-Cyclopentylamino-3-hydroxymorphinan TFA salt], the concentration for a half-maximal effect (EC50) in data set [1] was 92.7 nM. In data set [2], this molecule yielded a CC50 at 24 h of 378000 nM.
Consider `O=C(Nc1ccccc1)Nc1ccccc1Nc1cc2c(cc1O)[C@]13CCCC[C@@H]1[C@H](C2)NCC3` [Example 122, (+)-3-Hydroxy-2-(2-(phenylureido)phenylamino)morphinan TFA salt], for which, in data set [1], the half-maximal effective concentration (EC50) amounted to 3700 nM. The half-maximal cytotoxic concentration (CC50) at 24 h in data set [2] came to 33800 nM.
`CC(C)c1ccccc1Nc1cc2c(cc1O)[C@]13CCCC[C@@H]1[C@H](C2)NCC3` [Example 50, (+)-3-Hydroxy-2-(2-isopropylphenylamino)morphinan TFA salt]: in data set [1], the concentration for a half-maximal effect (EC50) was found to be 43 nM. Besides, the CC50 at 24 h in data set [2] worked out at 1000 nM.
Regarding `Oc1cc2c(cc1N1CCOCC1)C[C@@H]1NCC[C@]23CCCC[C@H]13` [Example 86, (+)-3-Hydroxy-2-morpholinomorphinan TFA salt], in data set [1], the EC50 came out at 1550 nM. Besides, the cytotoxic concentration (CC50) at 24 h in data set [2] is greater than 100000 nM.
With `CN(C)c1cc2c(cc1O)[C@]13CCCC[C@@H]1[C@H](C2)NCC3` [Example 98, (+)-2-(Dimethylamino)-3-hydroxymorphinan TFA salt], the EC50 in data set [1] is 5690 nM. The CC50 at 24 h in data set [2] is greater than 100000 nM.
With `Oc1cc2c(cc1Nc1ccc(OC(F)(F)F)cc1)C[C@@H]1NCC[C@]23CCCC[C@H]13` [Example 58, (+)-3-Hydroxy-2-(4-(trifluoromethoxy)phenylamino)morphinan TFA salt], in data set [1], the EC50 came to 131 nM. The midpoint of cytotoxicity in data set [2], the CC50 at 24 h, lay at 1400 nM.
For `CCN(CC)c1cc2c(cc1O)[C@]13CCCC[C@@H]1[C@H](C2)NCC3` [Example 101, (+)-2-(Diethylamino)-3-hydroxymorphinan TFA salt], in data set [1], the EC50 stood at 14000 nM. Moreover, in data set [2], the CC50 at 24 h is greater than 100000 nM.
Take `Oc1cc2c(cc1Nc1ccccc1F)C[C@@H]1NCC[C@]23CCCC[C@H]13` [Example 38, (+)-2-(2-Fluorophenylamino)-3-hydroxymorphinan TFA salt]: the half-maximal effective concentration (EC50) in data set [1] stood at 211 nM. Moreover, in data set [2], the CC50 at 24 h amounted to 11800 nM.
For the molecule `CCN(C)c1ccccc1Nc1cc2c(cc1O)[C@]13CCCC[C@@H]1[C@H](C2)NCC3` [Example 131, (+)-2-(2-(Ethyl(methyl)amino)phenylamino)-3-hydroxymorphinan TFA salt], in data set [1], the EC50 was 17.7 nM. Also, it took 1500 nM to reach half-maximal cytotoxicity in data set [2] (CC50 at 24 h).
The like results for `Oc1cc2c(cc1-c1ccc(C(F)(F)F)cc1)C[C@@H]1NCC[C@]23CCCC[C@H]13` [Example 79, (+)-3-Hydroxy-2-(4-trifluorophenyl)morphinan TFA salt] were, in that order, 6100 nM and 11000 nM.
